In patent US7994140B2, “Classes of compounds that interact with GPCRs” (Alchemia Limited, priority 2002, dated 2011):

What was measured:
SST5 = biological target: T1, SST5 (Homo sapiens, UniProt P35346); test: GPCR radioligand binding (RLB) assay, somatostatin SST5, [125I]SST-14; conditions: 10 micromolar compound; recombinant human receptor membranes (HEK 293)
T1 construct: purchased Perkin Elmer BioSignal; host or cells: HEK 293
Procedure: Recombinant human receptors expressed in HEK 293 cells were used for all experiments. Receptor membrane preparations were purchased from Perkin Elmer BioSignal. The labelled ligand used in somatostatin GPCR RLB assays was [^125I]SST-14 and in melanocortin assays was [^125I]NDP-αMSH. All assays were done in a 96-well plate format using either glass fiber filter mats or filter plates. All reagents purchased were of the highest quality.
Specific assay buffer, incubation and washing conditions were optimized for each receptor however they all followed the same general format. The procedures for both filter mat and filter plate formats are based on the receptor manufacturers recommendations or those described extensively in the literature. The procedures are briefly outlined below.
In assays where filter mats are used we incubate receptor membranes, assay buffer and [^125I] labelled ligand in 96 well microplates. Add compounds to incubation mixture and continue incubation for optimized period. Presoak Filter mat GF/B in 0.5% PEI for ˜2 hr at 4° C. On completion of assay mixture incubation add additional 100 μL/well of assay buffer immediately prior to filtration. Filter the assay mixture onto the GF/B filter mat using a cell harvester. Dry the filter mats prior to sealing them into a scintillation counting bag with scintillant. Radioactivity in each well is detected by liquid scintillation counting.
In assays where filter plates are used Multiscreen glass fiber filter plates (Millipore, Cat No MAFCNOB10) are precoated with 0.5% PEI for ˜2 hr at 4° C. All wells are then washed with 200 µl/well assay buffer and filtered using the Multiscreen Separation System. Subsequently receptor membranes, assay buffer and labelled ligands are added to the wells and equilibrated. Compounds for testing are then added to the mixture and incubation is continued for an optimized time. Plates are then put into the Multiscreen Separation System and the assay mixture is filtered through the plate under vacuum. Each well is then washed several times with assay buffer. Plates are then dried prior to putting sealing tape onto the bottom of the plate. Scintillant is added to each well and radioactivity measured by liquid scintillation counting.
Raw data was analysed according to standard methods using either GraphPad Prism software or IDDBS ActivityBase software.

MC4 = biological target: T2, MC4 (Homo sapiens, UniProt P32245); test: GPCR radioligand binding (RLB) assay, melanocortin MC4, [125I]NDP-αMSH; conditions: for MC4 Inhibition at 4.0 Micromolar: Example Library 13; for MC4 Inhibition at 1.0 Micromolar: 1.0 micromolar compound
T2 construct: purchased Perkin Elmer BioSignal; host or cells: HEK 293
T2 sequence (P32245 whole entry): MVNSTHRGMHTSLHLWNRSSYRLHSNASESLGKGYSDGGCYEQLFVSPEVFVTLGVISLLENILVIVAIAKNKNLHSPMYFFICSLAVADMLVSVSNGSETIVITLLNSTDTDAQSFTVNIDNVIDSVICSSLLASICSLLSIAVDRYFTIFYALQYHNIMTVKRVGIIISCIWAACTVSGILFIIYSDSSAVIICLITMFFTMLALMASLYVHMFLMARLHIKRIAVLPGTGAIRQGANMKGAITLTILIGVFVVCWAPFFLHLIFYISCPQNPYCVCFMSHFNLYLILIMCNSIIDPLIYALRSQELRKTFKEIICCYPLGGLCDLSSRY
Summary of the method: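 Competition binding against radioligand ([125I]NDP-αMSH for MC4, [125I]SST-14 for SST5) on membranes of HEK 293 cells carrying the human receptor; buffer and incubation time optimized per receptor. Filtration through 0.5% PEI-treated glass fiber, washing, then scintillation counting.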

T1 sequence (P35346 whole entry): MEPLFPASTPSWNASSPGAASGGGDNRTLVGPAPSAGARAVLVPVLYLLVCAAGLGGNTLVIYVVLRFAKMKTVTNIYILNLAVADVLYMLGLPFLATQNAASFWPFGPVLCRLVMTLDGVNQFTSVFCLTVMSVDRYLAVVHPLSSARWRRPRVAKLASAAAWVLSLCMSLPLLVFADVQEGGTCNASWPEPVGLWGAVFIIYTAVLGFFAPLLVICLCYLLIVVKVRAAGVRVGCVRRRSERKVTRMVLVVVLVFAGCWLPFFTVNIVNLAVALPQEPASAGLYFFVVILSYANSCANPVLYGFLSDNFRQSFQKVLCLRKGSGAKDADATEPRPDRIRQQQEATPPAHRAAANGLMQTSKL

Compound	SST5 inhibition at 10 micromolar (SST5)	other results
COC[C@H]1OC(OCc2ccc(-c3ccccc3)cc2)[C@H](NC(=O)CCNC(=N)N)[C@@H](OCc2ccc3ccccc3c2)[C@@H]1O (some centres unmarked) [Compound 2]	+ (Indicates inhibition greater than . . . 50%)	
COC[C@H]1OC(OCc2ccc(-c3ccccc3)cc2)[C@H](NC(=O)CCCN)[C@@H](OCc2ccccc2)[C@@H]1O (some centres unmarked) [Compound 3]	+ (Indicates inhibition greater than . . . 50%)	
COC[C@H]1OC(OCc2ccc3ccccc3c2)[C@H](NC(=O)CCCN)[C@@H](OCc2ccccc2)[C@@H]1O (some centres unmarked) [Compound 4]	+ (Indicates inhibition greater than . . . 50%)	
COC[C@H]1OC(OCc2ccccc2)[C@H](NC(=O)CCCN)[C@@H](OCc2ccc(-c3ccccc3)cc2)[C@@H]1O (some centres unmarked) [Compound 7]	+ (Indicates inhibition greater than . . . 50%)	
COC[C@H]1OC(OCc2ccccc2)[C@H](NC(=O)CCCNC(=N)N)[C@@H](OCc2ccc(-c3ccccc3)cc2)[C@@H]1O (some centres unmarked) [Compound 8]	+ (Indicates inhibition greater than . . . 50%)	
COC[C@H]1OC(OCc2ccccc2)[C@H](NC(=O)CCCN)[C@@H](OCc2ccccc2)[C@@H]1O (some centres unmarked) [Compound 9]	+ (Indicates inhibition greater than . . . 50%)	
COC[C@H]1OC(OCc2ccccc2)[C@H](NC(=O)CCNC(=N)N)[C@@H](OCc2ccc(Cl)cc2)[C@@H]1O (some centres unmarked) [Compound 10]	+ (Indicates inhibition greater than . . . 50%)	
COC[C@H]1OC(OCc2ccccc2)[C@H](NC(=O)CCCN)[C@@H](OCc2ccc(Cl)cc2)[C@@H]1O (some centres unmarked) [Compound 11]	+ (Indicates inhibition greater than . . . 50%)	
COC[C@H]1OC(OCc2ccccc2)[C@H](NC(=O)CCCNC(=N)N)[C@@H](OCc2ccc(Cl)cc2)[C@@H]1O (some centres unmarked) [Compound 12]	+ (Indicates inhibition greater than . . . 50%)	
COC[C@H]1OC(OCc2ccc(Cl)cc2)[C@H](NC(=O)CCCN)[C@@H](OCc2ccccc2)[C@@H]1O (some centres unmarked) [Compound 16]	+ (Indicates inhibition greater than . . . 50%)	
COC[C@H]1OC(OCc2ccc(Cl)cc2)[C@H](NC(=O)CCNC(=N)N)[C@@H](OCc2ccc(Cl)cc2)[C@@H]1O (some centres unmarked) [Compound 17]	+ (Indicates inhibition greater than . . . 50%)	
COC[C@H]1OC(OCc2ccc(Cl)cc2)[C@H](NC(=O)CCCNC(=N)N)[C@@H](OCc2ccc(Cl)cc2)[C@@H]1O (some centres unmarked) [Compound 18]	+ (Indicates inhibition greater than . . . 50%)	
COC[C@H]1OC(OCc2cccc(O)c2)[C@H](NC(=O)CCNC(=N)N)[C@@H](OCc2ccc(-c3ccccc3)cc2)[C@@H]1O (some centres unmarked) [Compound 21]	+ (Indicates inhibition greater than . . . 50%)	
COC[C@H]1OC(OCc2ccc(-c3ccccc3)cc2)[C@H](NC(=O)CCCN)[C@@H](OCc2cccc(O)c2)[C@@H]1O (some centres unmarked) [Compound 22]	+ (Indicates inhibition greater than . . . 50%)	
COC[C@H]1OC(OCc2ccc3ccccc3c2)[C@H](NC(=O)CCCN)[C@@H](OCc2cccc(O)c2)[C@@H]1O (some centres unmarked) [Compound 23]	+ (Indicates inhibition greater than . . . 50%)	
COC[C@H]1OC(OCc2ccc3ccccc3c2)[C@H](NC(=O)CCCNC(=N)N)[C@@H](OCc2cccc(O)c2)[C@@H]1O (some centres unmarked) [Compound 24]	+ (Indicates inhibition greater than . . . 50%)	
COC[C@H]1OC(OCc2ccccc2)[C@H](NC(=O)CCCN)[C@@H](OCc2cccc(O)c2)[C@@H]1O (some centres unmarked) [Compound 25]	+ (Indicates inhibition greater than . . . 50%)	
COC[C@H]1OC(OCc2ccc(Cl)cc2)[C@H](NC(=O)CCCN)[C@@H](OCc2cccc(O)c2)[C@@H]1O (some centres unmarked) [Compound 26]	+ (Indicates inhibition greater than . . . 50%)	
COC[C@H]1OC(OCCc2ccccc2)[C@H](NC(=O)CCCN)[C@@H](OCc2cccc(O)c2)[C@@H]1O (some centres unmarked) [Compound 27]	+ (Indicates inhibition greater than . . . 50%)	
COC[C@H]1OC(OCc2ccc(-c3ccccc3)cc2)[C@H](NC(=O)CCNC(=N)N)[C@@H](OCc2ccccc2)[C@@H]1O (some centres unmarked) [Compound 31]	+ (Indicates inhibition greater than . . . 50%)	
COC[C@H]1OC(OCc2ccc3ccccc3c2)[C@H](NC(=O)CCCNC(=N)N)[C@@H](OCc2ccccc2)[C@@H]1O (some centres unmarked) [Compound 41]	+ (Indicates inhibition greater than . . . 50%)	

Compound	SST5 inhibition at 10 micromolar (SST5)	other results
COC[C@H]1OC(OCc2ccc3ccccc3c2)[C@H](NC(=O)CCCN)[C@@H](OCc2ccc(Cl)cc2)[C@@H]1O (some centres unmarked) [Compound 42]	+ (Indicates inhibition greater than . . . 50%)	
COC[C@H]1OC(OCc2ccc(Cl)cc2)[C@H](NC(=O)CCCN)[C@@H](OCc2ccc(-c3ccccc3)cc2)[C@@H]1O (some centres unmarked) [Compound 44]	+ (Indicates inhibition greater than . . . 50%)	
COC[C@H]1OC(OCc2ccc(Cl)cc2)[C@H](NC(=O)CCCNC(=N)N)[C@@H](OCc2ccccc2)[C@@H]1O (some centres unmarked) [Compound 47]	+ (Indicates inhibition greater than . . . 50%)	
COC[C@H]1OC(OCCc2ccccc2)[C@H](NC(=O)CCCN)[C@@H](OCc2ccc(-c3ccccc3)cc2)[C@@H]1O (some centres unmarked) [Compound 48]	+ (Indicates inhibition greater than . . . 50%)	
COC[C@H]1OC(OCCc2ccccc2)[C@H](NC(=O)CCCN)[C@@H](OCc2ccc3ccccc3c2)[C@@H]1O (some centres unmarked) [Compound 50]	+ (Indicates inhibition greater than . . . 50%)	
COC[C@H]1OC(OCCc2ccccc2)[C@H](NC(=O)CCCN)[C@@H](OCc2ccc(Cl)cc2)[C@@H]1O (some centres unmarked) [Compound 51]	+ (Indicates inhibition greater than . . . 50%)	
COC[C@H]1OC(OCCc2ccccc2)[C@H](NC(=O)CCCNC(=N)N)[C@@H](OCc2ccc(Cl)cc2)[C@@H]1O (some centres unmarked) [Compound 52]	+ (Indicates inhibition greater than . . . 50%)	
COC[C@H]1OC(OCc2ccccc2)[C@H](NC(=O)CCCN)[C@@H](OCc2ccc3ccccc3c2)[C@@H]1O (some centres unmarked) [Compound 54]	+ (Indicates inhibition greater than . . . 50%)	
N=C(N)NCCC(=O)NC1C(OCc2ccc(Cl)cc2)OC(COCc2ccc(Cl)cc2)C(O)C1OCc1ccc(-c2ccccc2)cc1 (centres unmarked) [Compound 496]		MC4 Inhibition at 4.0 Micromolar (MC4): + (Indicates inhibition greater than . . . 50%)
N=C(N)NCCCC(=O)NC1C(OCc2ccc(-c3ccccc3)cc2)OC(COCc2ccccc2)C(O)C1OCc1ccccc1 (centres unmarked) [Compound 497]		MC4 Inhibition at 4.0 Micromolar (MC4): + (Indicates inhibition greater than . . . 50%)
CC(=O)N[C@H]1C(NC(=O)CCN)O[C@H](CO)[C@@H](O)[C@@H]1OCc1ccccc1 (some centres unmarked) [Compound 498]		MC4 Inhibition at 1.0 Micromolar (MC4): + (Indicates inhibition greater than . . . 50%)
CC(=O)N[C@H]1C(NC(=O)CCN)O[C@H](CO)[C@@H](O)[C@@H]1OCc1ccc(C)cc1 (some centres unmarked) [Compound 499]		MC4 Inhibition at 1.0 Micromolar (MC4): + (Indicates inhibition greater than . . . 50%)
CC(=O)N[C@H]1C(NC(=O)CCN)O[C@H](CO)[C@@H](O)[C@@H]1OCc1cccc2ccccc12 (some centres unmarked) [Compound 500]		MC4 Inhibition at 1.0 Micromolar (MC4): + (Indicates inhibition greater than . . . 50%)
CC(=O)N[C@H]1C(NC(=O)CCN)O[C@H](CO)[C@@H](O)[C@@H]1OCc1ccc(-c2ccccc2)cc1 (some centres unmarked) [Compound 501]		MC4 Inhibition at 1.0 Micromolar (MC4): + (Indicates inhibition greater than . . . 50%)
NCCC(=O)NC1O[C@H](CO)[C@@H](O)[C@H](OCc2ccccc2)[C@H]1NC(=O)c1ccccc1 (some centres unmarked) [Compound 502]		MC4 Inhibition at 1.0 Micromolar (MC4): + (Indicates inhibition greater than . . . 50%)
NCCC(=O)NC1O[C@H](CO)[C@@H](O)[C@H](OCc2ccc(Cl)cc2)[C@H]1NC(=O)c1ccccc1 (some centres unmarked) [Compound 503]		MC4 Inhibition at 1.0 Micromolar (MC4): + (Indicates inhibition greater than . . . 50%)
Cc1ccc(CO[C@H]2[C@H](O)[C@@H](CO)OC(NC(=O)CCN)[C@@H]2NC(=O)c2ccccc2)cc1 (some centres unmarked) [Compound 504]		MC4 Inhibition at 1.0 Micromolar (MC4): + (Indicates inhibition greater than . . . 50%)
NCCC(=O)NC1O[C@H](CO)[C@@H](O)[C@H](OCc2cccc3ccccc23)[C@H]1NC(=O)c1ccccc1 (some centres unmarked) [Compound 505]		MC4 Inhibition at 1.0 Micromolar (MC4): + (Indicates inhibition greater than . . . 50%)
NCC(=O)NC1O[C@H](CO)[C@@H](O)[C@H](OCc2ccccc2)[C@H]1NC(=O)c1ccccc1 (some centres unmarked) [Compound 506]		MC4 Inhibition at 1.0 Micromolar (MC4): + (Indicates inhibition greater than . . . 50%)
NCC(=O)NC1O[C@H](CO)[C@@H](O)[C@H](OCc2ccc(Cl)cc2)[C@H]1NC(=O)c1ccccc1 (some centres unmarked) [Compound 507]		MC4 Inhibition at 1.0 Micromolar (MC4): + (Indicates inhibition greater than . . . 50%)
